Data on 26 molecules can be found in patent publication US11999699B2, “Substituted pyrazole amides” (GRUENENTHAL GMBH, priority 2021, dated 2024).

The target in this assay is T1, human NaV1.8 (Homo sapiens, UniProt Q9Y5Y9).
T1 construct: The following NaV1.8 recombinant cell line was used for recordings: HEK-NaV1.8 (NM 006514.1); expressed in transfected cells; host or cells: HEK (recombinant cell line HEK-NaV1.8)
T1 sequence (Q9Y5Y9 whole entry): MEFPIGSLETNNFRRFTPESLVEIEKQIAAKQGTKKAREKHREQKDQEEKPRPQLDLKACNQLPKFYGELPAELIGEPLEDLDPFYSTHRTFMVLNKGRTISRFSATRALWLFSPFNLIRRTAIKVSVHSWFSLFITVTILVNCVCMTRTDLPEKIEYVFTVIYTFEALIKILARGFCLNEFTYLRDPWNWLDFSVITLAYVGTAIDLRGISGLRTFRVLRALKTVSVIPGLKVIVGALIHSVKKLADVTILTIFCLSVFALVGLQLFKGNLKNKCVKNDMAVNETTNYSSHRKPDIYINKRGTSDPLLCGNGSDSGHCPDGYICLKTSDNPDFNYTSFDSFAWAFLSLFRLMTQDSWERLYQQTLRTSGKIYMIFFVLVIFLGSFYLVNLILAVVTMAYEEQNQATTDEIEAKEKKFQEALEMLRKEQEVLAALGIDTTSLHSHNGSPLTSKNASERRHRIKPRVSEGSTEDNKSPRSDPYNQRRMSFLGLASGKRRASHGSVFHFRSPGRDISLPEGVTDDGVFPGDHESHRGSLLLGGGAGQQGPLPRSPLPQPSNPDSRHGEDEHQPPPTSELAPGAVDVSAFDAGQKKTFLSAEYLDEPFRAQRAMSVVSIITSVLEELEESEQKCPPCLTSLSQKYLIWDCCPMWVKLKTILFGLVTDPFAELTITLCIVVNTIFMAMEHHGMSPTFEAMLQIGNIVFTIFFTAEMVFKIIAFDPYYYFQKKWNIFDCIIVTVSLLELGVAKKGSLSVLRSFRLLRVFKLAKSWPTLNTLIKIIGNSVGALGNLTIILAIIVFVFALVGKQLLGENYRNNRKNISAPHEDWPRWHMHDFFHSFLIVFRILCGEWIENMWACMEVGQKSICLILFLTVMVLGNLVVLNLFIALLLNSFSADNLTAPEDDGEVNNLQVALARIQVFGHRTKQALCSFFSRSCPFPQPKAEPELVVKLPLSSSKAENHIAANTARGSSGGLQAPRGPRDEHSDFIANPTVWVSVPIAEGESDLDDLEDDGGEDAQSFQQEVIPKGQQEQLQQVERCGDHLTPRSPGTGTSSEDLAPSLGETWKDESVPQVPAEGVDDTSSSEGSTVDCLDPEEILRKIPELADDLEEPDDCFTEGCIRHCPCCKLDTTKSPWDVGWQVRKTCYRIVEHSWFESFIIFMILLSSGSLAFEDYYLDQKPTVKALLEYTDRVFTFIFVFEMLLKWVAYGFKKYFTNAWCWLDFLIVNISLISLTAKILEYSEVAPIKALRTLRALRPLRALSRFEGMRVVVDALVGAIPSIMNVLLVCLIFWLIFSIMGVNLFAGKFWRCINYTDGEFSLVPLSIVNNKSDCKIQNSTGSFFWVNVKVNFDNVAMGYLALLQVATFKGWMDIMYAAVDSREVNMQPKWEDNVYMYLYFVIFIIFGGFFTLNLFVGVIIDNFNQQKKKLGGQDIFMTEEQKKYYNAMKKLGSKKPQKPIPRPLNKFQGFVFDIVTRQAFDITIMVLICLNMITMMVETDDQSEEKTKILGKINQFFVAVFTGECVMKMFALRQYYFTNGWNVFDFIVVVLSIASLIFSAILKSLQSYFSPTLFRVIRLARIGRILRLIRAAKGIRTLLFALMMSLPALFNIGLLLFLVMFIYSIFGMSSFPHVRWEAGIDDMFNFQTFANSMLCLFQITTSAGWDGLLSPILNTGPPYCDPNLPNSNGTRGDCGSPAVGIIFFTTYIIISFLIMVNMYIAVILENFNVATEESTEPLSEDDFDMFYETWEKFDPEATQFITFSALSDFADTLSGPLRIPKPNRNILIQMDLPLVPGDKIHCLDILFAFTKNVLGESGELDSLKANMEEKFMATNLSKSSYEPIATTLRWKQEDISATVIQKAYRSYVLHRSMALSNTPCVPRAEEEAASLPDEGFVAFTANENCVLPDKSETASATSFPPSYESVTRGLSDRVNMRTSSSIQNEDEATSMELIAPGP
T1 sequence (Q9NY72 23-215 partner): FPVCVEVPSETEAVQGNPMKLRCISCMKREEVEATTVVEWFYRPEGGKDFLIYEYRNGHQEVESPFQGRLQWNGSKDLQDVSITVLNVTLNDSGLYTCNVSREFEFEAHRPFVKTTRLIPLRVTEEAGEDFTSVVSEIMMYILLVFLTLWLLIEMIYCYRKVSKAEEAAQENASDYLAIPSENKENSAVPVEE
The experiment in a line: Electrophysiology: automated whole-cell voltage-clamp (patch clamp, Qube384) recordings of sodium currents in HEK-NaV1.8 cells. The format is cell-based. The conditions noted are these: potency data either taken from inactivated or resting state, read-out: Potency category (human NaV1.8 IC50). The method, then:
Electrophysiology: Voltage-Clamp Recordings
The following NaV1.8 recombinant cell line was used for recordings: HEK-NaV1.8 (NM 006514.1) with in (NM 018400.3).
Sodium currents were measured using the patch clamp technique in the whole-cell configuration using the Qube384 (Sophion A/S, Copenhagen, Denmark) automated voltage clamp platform. “Multi hole” plates were used for the cell line expressing NaV1.8 while “single hole” plates were used for the recombinant cell lines expressing the other subtypes. Appropriate filters (for minimum seal resistance and minimum current size) and series resistance compensation (for high quality sodium channel recordings) were applied. Data was collected at ambient room temperature.
The recording extracellular solution contained (in mM): NaCl 145 mM, KCl 4 mM, CaCl2 2 mM, MgCl2 1 mM, HEPES 10 mM, Glucose 10 mM, pH 7.4 (NaOH). The intracellular recording solution contained (in mM): CsF 120 mM, CsCl 20 mM, NaCl 10 mM, EGTA 10 mM, HEPES 10 mM, pH 7.2 (CsOH). Currents were recorded at 25 kHz sampling frequency and filtered at 5 kHz. Series resistance compensation was applied at 65%.
Vehicle (VEH) is the control condition where cells are exposed to 0.3% DMSO without compound. All runs include VEH controls being exposed to the same voltage protocols to assess non-compound related phenomena such as run down and then used to isolate compound dependent effects on currents.
To check for state-dependence inhibition, the following voltage-sequence was applied every 20 seconds:
From a resting membrane potential of −120 mV, the first test pulse (P1; 20 ms to −10 mV) was applied to check for channels in the Resting State followed by a brief recovery (20 ms to −120 mV), then holding the membrane voltage to V112 (4 seconds at voltage to obtain half the channel at Rest and half Inactivated) with a subsequent second test pulse (P2; 20 ms to −10 mV) to check for channels in the Inactivated State, followed by another brief recovery (20 ms to −120 mV) and a final third test pulse (P3; 20 ms to −10 mV) to check for recovered channels.
To check for frequency-dependent inhibition, a 10 Hz protocol and a 20 Hz protocol were applied; namely,
From a resting membrane potential of −120 mV, 40-pulses (10 ms to −10 mV) was applied at 10 Hz (at 100 ms between pulses) and then at 20 Hz (at 50 ms between pulses).
Each parameter was recorded (P1, P2, P3, P40 from 10 Hz and P40 from 20 Hz) during a control period (lasting 5 minutes) when establishing the baseline and during compound period (lasting ˜12 minutes) when test compound (or vehicle) was applied. For each parameter, the value at the end of the compound period was normalized to the vehicle baseline; as follows
To adjust for any variance in the Na^+ current signal during the compound period (owing to cumulative inactivation independent of compound or shifts in biophysics over time), a dedicated segment of the recording wells in each 384 plate were dedicated to having only vehicle exposure. These vehicle-only recordings were used to correct for any apparent “run-up” or “run-down” in the experiment.
The adjusted inhibition was calculated as follows: […]
Percent inhibition was determined and IC50 values were calculated using a 4 parameter logistic model within XLFit Software (IDBS, Boston MA):
[formula] where A and B are the maximal and minimum inhibition respectively, C is the IC50 concentration and D is the (Hill) slope.
The potency data was either taken from inactivated or resting state.
On the technique in general: In patch-clamp work, channel activity is measured electrically.
On to `NC(=O)c1cc(NC(=O)c2c(C(F)(F)F)c(C3CC3)nn2CC2CCC2(F)F)ccn1` (single isomer, unassigned) [SC-154a, 4-(3-cyclopropyl-1-((2,2-difluorocyclobutyl)methyl)-4-(trifluoromethyl)-1H-pyrazole-5-carboxamido)picolinamide], for which the IC50 is not above 0.1 µM.
The result for `Cc1c(OC(F)(F)F)nn(CC2CC(F)(F)C2)c1C(=O)Nc1ccnc(C(N)=O)c1` [SC-318, 4-(1-((3,3-difluorocyclobutyl)methyl)-4-methyl-3-(trifluoromethoxy)-1H-pyrazole-5-carboxamido)picolinamide] reads 0.1 to 1 µM; that for `CS(=O)(=O)c1cc(NC(=O)c2c(C(F)(F)F)c(OC(F)F)nn2CC2CCC(F)(F)C2)ccn1` (racemic) [SC-293, 1-((3,3-difluorocyclopentyl)methyl)-3-(difluoromethoxy)-N-(2-(methylsulfonyl)pyridin-4-yl)-4-(trifluoromethyl)-1H-pyrazole-5-carboxamide], not above 0.1 µM.
As for `COc1c(C(F)(F)F)nn(CC2CCC(F)(F)C2)c1C(=O)Nc1ccnc(C(N)=O)c1` (centres unmarked) [SC-269, 4-(1-((3,3-difluorocyclopentyl)methyl)-4-methoxy-3-(trifluoromethyl)-lH-pyrazole-5-carboxamido)picolinamide], the figure is 0.1 to 1 µM.
Regarding `NC(=O)c1cc(NC(=O)c2c(Cl)c(C(F)(F)F)nn2CC2CCC(F)(F)C2)ccn1` (single isomer, unassigned) [SC-160b], the IC50 is not above 0.1 µM.
The result for `CS(=O)(=O)c1cccc(NC(=O)c2ccnn2CC2CCCCC2)c1` [SC-226, 1-(cyclohexylmethyl)-N-(3-(methyIsulfonyl)phenyl)-1H-pyrazole-5-carboxamide] reads 1 to 10 µM; that for `CC1CCCC(Cn2nc(C3CC3)c(C(F)(F)F)c2C(=O)Nc2ccnc(C(N)=O)c2)O1` (centres unmarked) [SC-143, 4-(3-cyclopropyl-1-((6-methyltetrahydro-2H-pyran-2-yl)methyl)-4-(trifluoromethyl)-1H-pyrazole-5-carboxamido)picolinamide], not above 0.1 µM.
As to `CS(=O)(=O)c1cc(NC(=O)c2c(C(F)(F)F)cnn2CC2CCC(F)(F)CC2)ccc1F` [SC-13, 2-[(4,4-difluorocyclohexyl)methyl]-N-(4-fluoro-3-methylsulfonylphenyl)-4-(trifluoromethyl)pyrazole-3-carboxamide], the IC50 lay within 0.1 to 1 µM.
As for `CS(=O)(=O)c1cccc(NC(=O)c2cc(C(F)(F)F)nn2CC2CCOCC2)c1` [SC-04, N-(3-methylsulfonylphenyl)-2-(oxan-4-ylmethyl)-5-(trifluoromethyl)pyrazole-3-carboxamide], the figure is 1 to 10 µM; as for `CC(C)c1cnn(CC2CCCCC2)c1C(=O)Nc1cccc(S(C)(=O)=O)c1` [SC-18, 2-(cyclohexylmethyl)-N-(3-methylsulfonylphenyl)-4-propan-2-ylpyrazole-3-carboxamide], 1 to 10 µM; as for `CC(C1CCCCC1)n1ncc(C(F)(F)F)c1C(=O)Nc1cccc(S(C)(=O)=O)c1` (centres unmarked) [SC-29, 2-(1-cyclohexylethyl)-N-(3-methylsulfonylphenyl)-4-(trifluoromethyl)pyrazole-3-carboxamide], 0.1 to 1 µM.
As for `Cc1cc(NC(=O)c2c(C(F)(F)F)c(C)nn2CC2CCC(F)(F)CC2)cc(C(N)=O)n1` [SC-267, 4-(1-((4,4-difluorocyclohexyl)methyl)-3-methyl-4-(trifluoromethyl)-1H-pyrazole-5-carboxamido)-6-methylpicolinamide], the figure is 0.1 to 1 µM; as for `NS(=O)(=O)c1cc(NC(=O)c2c(C(F)(F)F)c(C3CC3)nn2CC2CCC(F)(F)CC2)ccn1` [SC-246, 3-cyclopropyl-1-((4,4-difluorocyclohexyl)methyl)-N-(2-sulfamoylpyridin-4-yl)-4-(trifluoromethyl)-1H-pyrazole-5-carboxamide], not above 0.1 µM.
As for `CC(C)Oc1nn(CC2CCC(F)(F)C2)c(C(=O)Nc2ccnc(C(N)=O)c2)c1C(F)(F)F` (centres unmarked) [SC-155, 4-(1-((3,3-difluorocyclopentyl)methyl)-3-isopropoxy-4-(trifluoromethyl)-1H-pyrazole-5-carboxamido)picolinamide], the figure is not above 0.1 µM; as for `NS(=O)(=O)c1cc(NC(=O)c2c(C(F)(F)F)c(C3CC3)nn2CC2CC(F)(F)C2)ccn1` [SC-282, 3-cyclopropyl-1-((3,3-difluorocyclobutyl)methyl)-N-(2-sulfamoylpyridin-4-yl)-4-(trifluoromethyl)-1H-pyrazole-5-carboxamide], not above 0.1 µM; as for `Cc1c(C(C)(F)F)nn(CC2C[C@H]2C)c1C(=O)Nc1ccnc(S(N)(=O)=O)c1` (some centres unmarked) [SC-314, 3-(1,1-difluoroethyl)-4-methyl-1-((2-methyleyelopropyl)methyl)-N-(2-sulfamoylpyridin-4-yl)-lH-pyrazole-5-carboxamide], not above 0.1 µM.
Take `Cc1nn(CC2CCC(F)(F)CC2)c(C(=O)Nc2ccc(C(N)=O)nc2)c1C(F)(F)F` [SC-257, 5-(1-((4,4-difluorocyclohexyl)methyl)-3-methyl-4-(trifluoromethyl)-1H-pyrazole-5-carboxamido)picolinamide]: the IC50 lay in the range of 0.1 to 1 µM.
As to `Cc1nn(CC2CCC(F)(F)CC2)c(C(=O)Nc2ccnc(C(N)=O)c2)c1C(F)(F)F` [SC-84, 4-(1-((4,4-difluorocyclohexyl)methyl)-3-methyl-4-(trifluoromethyl)-1H-pyrazole-5-carboxamido)picolinamide], the IC50 is not above 0.1 µM.
Take `CS(=O)(=O)c1cc(F)cc(NC(=O)c2c(C(F)(F)F)cnn2CC2CCC(F)(F)CC2)c1` [SC-42, 2-[(4,4-difluorocyclohexyl)methyl]-N-(3-fluoro-5-methylsulfonylphenyl)-4-(trifluoromethyl)pyrazole-3-carboxamide]: the IC50 lay in the range of 1 to 10 µM.
The result for `CS(=O)(=O)c1cccc(NC(=O)c2c(C3CC3)cnn2CC2CCCCC2)c1` [SC-19, 2-(cyclohexylmethyl)-4-cyclopropyl-N-(3-methylsulfonylphenyl)pyrazole-3-carboxamide] reads 0.1 to 1 µM; that for `CS(=O)(=O)c1cccc(NC(=O)c2c(C(F)(F)F)cnn2CC2CCC2)c1` [SC-24, 2-(cyclobutylmethyl)-N-(3-methylsulfonylphenyl)-4-(trifluoromethyl)pyrazole-3-carboxamide], 0.1 to 1 µM; that for `Cc1c(C(F)F)nn(CC2CCC(F)(F)CC2)c1C(=O)Nc1ccnc(C(N)=O)c1` [SC-163, 4-(1-((4,4-difluorocyclohexyl)methyl)-3-(difluoromethyl)-4-methyl-1H-pyrazole-5-carboxamido)picolinamide], not above 0.1 µM.
For `Cc1nn(CC2CCC(F)(F)CC2)c(C(=O)Nc2ncc(C(N)=O)o2)c1C(F)(F)F` [SC-256, 2-(1-((4,4-difluorocyclohexyl)methyl)-3-methyl-4-(trifluoromethyl)-1H-pyrazole-5-carboxamido)oxazole-5-carboxamide], the IC50 is 1 to 10 µM.
The result for `NC(=O)c1cc(NC(=O)c2c(C(F)(F)F)c(C3CC3)nn2CC2CCC2(F)F)ccn1` (single isomer, unassigned) [SC-154b, 4-(3-cyclopropyl-1-((2,2-difluorocyclobutyl)methyl)-4-(trifluoromethyl)-1H-pyrazole-5-carboxamido)picolinamide] reads not above 0.1 µM; that for `NC(=O)c1cc(NC(=O)c2c(C(F)(F)F)c(C3CC3)nn2C[C@@H]2CO[C@H](C(F)(F)F)C2)ccn1` (single isomer, unassigned) [SC-148a], not above 0.1 µM.
As for `CS(=O)(=O)c1cccc(NC(=O)c2c(F)cnn2CC2CCCCC2)c1` [SC-08, 2-(cyclohexylmethyl)-4-fluoro-N-(3-methylsulfonylphenyl)pyrazole-3-carboxamide], the figure is 1 to 10 µM.

As usually defined, the IC50 is the concentration at which inhibition is half-maximal.
